From publication PMC6844310, “Deletion of glutaredoxin promotes oxidative tolerance and intracellular infection in Listeria monocytogenes” (Virulence, 2019)

Target: T1, Grx (Lmo2344) (Listeria monocytogenes, UniProt Q8Y4T8)
T1 construct: CHYC active motif
T1 sequence (Q8Y4T8 1-88): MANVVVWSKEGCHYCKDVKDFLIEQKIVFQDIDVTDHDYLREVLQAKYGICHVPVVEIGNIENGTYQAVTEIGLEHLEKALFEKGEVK
Test: insulin disulfide reduction, turbidity at […] nm
Format: biochemical
Conditions: electron donor, 1 mM DTT; 0.15 mM human insulin, pH 7.0, 2 mM EDTA; DTT also reduces insulin non-enzymatically

OC(CS)C(O)CS (stereo not shown) [DTT]
insulin disulfide reduction, turbidity at 650 nm: Using DTT as an electron donor, the recombinant Lmo2344 is able to catalyze the reduction
